# Experimental data taken from patent US7074789B2, “Kinase inhibitors” (Amgen Inc., priority 1999, dated 2006).
# Legend:
# Format in all cases: biochemical
# c-Met = biological target: T1, c-Met (Homo sapiens, UniProt P08581); assay: Kinase inhibition assay (33P transfer), c-Met; conditions: Table 2, kinase inhibition class; read-out: Met-1
# T1 construct: Kinases are expressed as either kinase domains or full length constructs; made in house
# Summary of the method: (§1)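 IC50: inhibitor concentration lowering 33P incorporation into immobilised substrate by 50%. Label transferred from ATP to poly(Glu,Tyr) 4:1 or poly(Arg,Ser) 3:1 is measured after a 0.5% phosphoric acid wash by liquid scintillation.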
# ErbB2 = biological target: T2, ErbB2 (Homo sapiens, UniProt P04626); assay: Kinase inhibition assay (33P transfer), ErbB2; conditions: read-out: ErbB2-2
# T2 construct: Kinases are expressed as either kinase domains or full length constructs; made in house
# Summary of the method: as §1
# Lck = biological target: T3, Lck (Homo sapiens, UniProt P06239); assay: Kinase inhibition assay (33P transfer), Lck; conditions: read-out: Lck-1
# T3 construct: Kinases are expressed as either kinase domains or full length constructs; made in house
# Summary of the method: (§2)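 33P-ATP transfer to coated synthetic polymer substrates; acid wash (0.5% H3PO4), scintillant, liquid scintillation count. Enzymes: His- or GST-fusion kinases from E. coli or High Five insect cells.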
# EGFR = biological target: T4, EGFR (Homo sapiens, UniProt P00533); assay: Kinase inhibition assay (33P transfer), EGFR; conditions: Table 2, kinase inhibition class; read-out: EGFR-1
# T4 construct: Kinases are expressed as either kinase domains or full length constructs; made in house
# Summary of the method: as §1
# AKT = biological target: T5, AKT (Homo sapiens, UniProt Q9Y243); assay: Kinase inhibition assay (33P transfer), AKT; conditions: Table 2, kinase inhibition class; read-out: AKT3-1
# T5 construct: Kinases are expressed as either kinase domains or full length constructs; made in house
# Summary of the method: as §2
# Kdr = biological target: T6, Kdr (Homo sapiens, UniProt P35968); assay: Kinase inhibition assay (33P transfer), Kdr; conditions: read-out: KDR-1
# T6 construct: Kinases are expressed as either kinase domains or full length constructs; made in house
# Summary of the method: as §2
# Zap-70 = biological target: T7, Zap-70 (Homo sapiens, UniProt P43403); assay: Kinase inhibition assay (33P transfer), Zap-70; conditions: read-out: Zap-1
# T7 construct: Kinases are expressed as either kinase domains or full length constructs; made in house
# T7 sequence (P43403 1-619): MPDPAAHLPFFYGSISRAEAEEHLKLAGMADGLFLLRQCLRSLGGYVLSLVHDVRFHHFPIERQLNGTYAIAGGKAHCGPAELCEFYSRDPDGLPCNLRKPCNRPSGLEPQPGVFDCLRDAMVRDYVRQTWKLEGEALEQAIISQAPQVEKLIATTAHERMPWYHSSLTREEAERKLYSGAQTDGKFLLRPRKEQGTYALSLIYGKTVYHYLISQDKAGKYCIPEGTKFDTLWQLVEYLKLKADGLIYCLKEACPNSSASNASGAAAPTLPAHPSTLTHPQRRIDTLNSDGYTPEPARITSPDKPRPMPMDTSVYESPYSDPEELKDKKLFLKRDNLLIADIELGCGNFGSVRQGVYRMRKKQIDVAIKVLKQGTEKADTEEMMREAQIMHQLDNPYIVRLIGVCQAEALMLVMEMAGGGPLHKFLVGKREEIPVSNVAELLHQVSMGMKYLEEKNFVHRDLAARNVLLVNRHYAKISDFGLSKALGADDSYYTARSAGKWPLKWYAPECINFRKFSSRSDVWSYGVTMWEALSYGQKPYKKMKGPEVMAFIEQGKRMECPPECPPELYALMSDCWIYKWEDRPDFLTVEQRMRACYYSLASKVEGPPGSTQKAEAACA
# Summary of the method: as §2
# PDGFRB = biological target: T8, PDGFRB (Homo sapiens, UniProt P09619); assay: Kinase inhibition assay (33P transfer), PDGFRB; conditions: read-out: PDGFRB-1
# T8 construct: Kinases are expressed as either kinase domains or full length constructs; made in house
# IGFR-1 = biological target: T9, IGFR-1 (Homo sapiens, UniProt P08069); assay: Kinase inhibition assay, IGFR-1 (Table 2); conditions: Table 2, kinase inhibition class
# T9 construct: Kinases are expressed as either kinase domains or full length constructs; made in house
# Itk = biological target: T10, Itk (Homo sapiens, UniProt Q08881); assay: Kinase inhibition assay (33P transfer), Itk; conditions: read-out: Itk-1
# T10 construct: Kinases are expressed as either kinase domains or full length constructs; made in house
# T10 sequence (Q08881 1-620): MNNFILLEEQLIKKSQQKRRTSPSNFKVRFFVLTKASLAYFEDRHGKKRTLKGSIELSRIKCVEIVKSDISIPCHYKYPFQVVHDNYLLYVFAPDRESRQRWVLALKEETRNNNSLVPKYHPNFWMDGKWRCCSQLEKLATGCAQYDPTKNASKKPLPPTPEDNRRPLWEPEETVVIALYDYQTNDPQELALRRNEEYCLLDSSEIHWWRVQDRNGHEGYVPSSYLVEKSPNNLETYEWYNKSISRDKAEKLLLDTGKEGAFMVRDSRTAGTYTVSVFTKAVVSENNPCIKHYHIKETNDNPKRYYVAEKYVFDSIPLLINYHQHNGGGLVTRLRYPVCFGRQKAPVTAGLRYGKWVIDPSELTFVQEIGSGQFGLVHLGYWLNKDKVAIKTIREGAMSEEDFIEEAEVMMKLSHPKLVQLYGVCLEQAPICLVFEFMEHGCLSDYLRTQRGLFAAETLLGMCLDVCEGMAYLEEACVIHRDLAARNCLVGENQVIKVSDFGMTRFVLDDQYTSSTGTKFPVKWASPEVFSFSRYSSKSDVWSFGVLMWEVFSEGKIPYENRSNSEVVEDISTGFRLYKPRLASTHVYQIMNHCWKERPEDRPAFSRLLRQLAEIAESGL
# Summary of the method: as §1
# T9 sequence (P08069 31-1367): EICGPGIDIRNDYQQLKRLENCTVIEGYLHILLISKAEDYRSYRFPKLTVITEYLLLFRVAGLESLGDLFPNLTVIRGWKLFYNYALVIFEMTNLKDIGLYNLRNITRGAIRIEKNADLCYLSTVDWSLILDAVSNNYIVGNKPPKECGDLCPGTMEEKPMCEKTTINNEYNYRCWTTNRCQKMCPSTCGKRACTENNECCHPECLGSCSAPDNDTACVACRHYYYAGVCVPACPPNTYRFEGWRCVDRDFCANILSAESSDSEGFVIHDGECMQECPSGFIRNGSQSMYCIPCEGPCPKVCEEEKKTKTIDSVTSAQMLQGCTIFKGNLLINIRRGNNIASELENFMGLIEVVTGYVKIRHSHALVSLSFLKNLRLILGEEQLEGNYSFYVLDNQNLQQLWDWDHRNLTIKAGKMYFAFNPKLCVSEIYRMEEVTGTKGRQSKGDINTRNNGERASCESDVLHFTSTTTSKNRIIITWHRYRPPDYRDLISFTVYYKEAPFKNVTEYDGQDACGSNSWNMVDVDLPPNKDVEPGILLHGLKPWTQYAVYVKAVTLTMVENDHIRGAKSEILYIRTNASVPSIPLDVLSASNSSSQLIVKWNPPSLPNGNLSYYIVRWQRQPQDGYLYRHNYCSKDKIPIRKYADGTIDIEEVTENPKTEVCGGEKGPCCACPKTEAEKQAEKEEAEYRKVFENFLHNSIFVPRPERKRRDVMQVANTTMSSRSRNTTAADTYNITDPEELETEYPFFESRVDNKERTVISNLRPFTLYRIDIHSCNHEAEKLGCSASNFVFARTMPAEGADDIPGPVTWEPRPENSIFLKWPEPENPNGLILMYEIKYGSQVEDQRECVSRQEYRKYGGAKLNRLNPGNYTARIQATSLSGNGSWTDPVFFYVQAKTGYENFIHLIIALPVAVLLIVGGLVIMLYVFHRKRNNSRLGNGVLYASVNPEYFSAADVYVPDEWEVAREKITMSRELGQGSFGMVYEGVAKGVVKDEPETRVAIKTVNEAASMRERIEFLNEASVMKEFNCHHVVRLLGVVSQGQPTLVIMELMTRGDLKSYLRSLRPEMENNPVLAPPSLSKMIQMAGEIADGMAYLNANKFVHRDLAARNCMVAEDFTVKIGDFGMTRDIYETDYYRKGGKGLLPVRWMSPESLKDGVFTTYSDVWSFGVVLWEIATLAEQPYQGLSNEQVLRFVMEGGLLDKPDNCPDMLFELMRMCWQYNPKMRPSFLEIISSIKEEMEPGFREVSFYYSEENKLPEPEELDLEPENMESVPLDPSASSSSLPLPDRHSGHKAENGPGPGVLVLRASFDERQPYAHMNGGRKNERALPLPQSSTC
# T4 sequence (P00533 25-1210, species assumed): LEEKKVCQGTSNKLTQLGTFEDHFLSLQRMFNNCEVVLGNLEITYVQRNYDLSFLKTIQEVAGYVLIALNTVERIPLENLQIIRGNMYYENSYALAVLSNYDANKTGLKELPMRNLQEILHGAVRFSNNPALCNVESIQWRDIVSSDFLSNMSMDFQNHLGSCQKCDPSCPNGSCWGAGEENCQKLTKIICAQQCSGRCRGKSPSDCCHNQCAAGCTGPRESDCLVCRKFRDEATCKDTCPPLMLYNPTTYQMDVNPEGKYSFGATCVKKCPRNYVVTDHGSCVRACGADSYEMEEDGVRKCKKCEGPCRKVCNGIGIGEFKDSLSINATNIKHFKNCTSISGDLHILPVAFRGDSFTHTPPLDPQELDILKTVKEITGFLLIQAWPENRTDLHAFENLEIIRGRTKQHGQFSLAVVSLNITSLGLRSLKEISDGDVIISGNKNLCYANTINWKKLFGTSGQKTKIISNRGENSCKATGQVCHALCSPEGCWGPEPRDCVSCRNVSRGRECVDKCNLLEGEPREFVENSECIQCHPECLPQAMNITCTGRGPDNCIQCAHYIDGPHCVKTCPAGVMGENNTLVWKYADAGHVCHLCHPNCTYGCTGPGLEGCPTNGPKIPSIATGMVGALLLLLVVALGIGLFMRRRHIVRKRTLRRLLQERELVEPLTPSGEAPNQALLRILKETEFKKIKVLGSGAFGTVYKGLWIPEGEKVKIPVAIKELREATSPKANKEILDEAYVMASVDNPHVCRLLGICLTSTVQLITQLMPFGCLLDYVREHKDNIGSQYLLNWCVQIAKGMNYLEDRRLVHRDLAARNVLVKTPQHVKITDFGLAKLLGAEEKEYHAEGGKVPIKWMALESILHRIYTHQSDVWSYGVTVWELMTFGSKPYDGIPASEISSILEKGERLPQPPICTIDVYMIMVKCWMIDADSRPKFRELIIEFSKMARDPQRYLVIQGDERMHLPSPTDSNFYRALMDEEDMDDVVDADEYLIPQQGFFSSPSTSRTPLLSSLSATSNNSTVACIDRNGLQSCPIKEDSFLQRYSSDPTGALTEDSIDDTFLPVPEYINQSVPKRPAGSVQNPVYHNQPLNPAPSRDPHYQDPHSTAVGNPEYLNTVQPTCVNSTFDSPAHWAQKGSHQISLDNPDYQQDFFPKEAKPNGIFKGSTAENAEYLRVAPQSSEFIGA
# T5 sequence (Q9Y243 whole entry, the tested form may be a part): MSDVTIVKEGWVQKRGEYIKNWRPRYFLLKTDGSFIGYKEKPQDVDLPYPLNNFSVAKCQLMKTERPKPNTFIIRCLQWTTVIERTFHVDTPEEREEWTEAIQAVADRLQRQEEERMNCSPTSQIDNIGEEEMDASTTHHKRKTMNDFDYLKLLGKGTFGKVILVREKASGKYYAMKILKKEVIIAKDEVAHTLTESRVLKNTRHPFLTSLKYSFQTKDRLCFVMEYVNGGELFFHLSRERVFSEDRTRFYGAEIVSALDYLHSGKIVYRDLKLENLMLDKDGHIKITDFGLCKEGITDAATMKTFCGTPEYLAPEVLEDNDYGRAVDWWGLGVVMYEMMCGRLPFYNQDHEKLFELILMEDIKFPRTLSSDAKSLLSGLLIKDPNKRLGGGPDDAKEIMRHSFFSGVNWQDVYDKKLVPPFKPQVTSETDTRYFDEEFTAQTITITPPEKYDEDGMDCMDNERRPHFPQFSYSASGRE
# T6 sequence (P35968 20-1356, species assumed): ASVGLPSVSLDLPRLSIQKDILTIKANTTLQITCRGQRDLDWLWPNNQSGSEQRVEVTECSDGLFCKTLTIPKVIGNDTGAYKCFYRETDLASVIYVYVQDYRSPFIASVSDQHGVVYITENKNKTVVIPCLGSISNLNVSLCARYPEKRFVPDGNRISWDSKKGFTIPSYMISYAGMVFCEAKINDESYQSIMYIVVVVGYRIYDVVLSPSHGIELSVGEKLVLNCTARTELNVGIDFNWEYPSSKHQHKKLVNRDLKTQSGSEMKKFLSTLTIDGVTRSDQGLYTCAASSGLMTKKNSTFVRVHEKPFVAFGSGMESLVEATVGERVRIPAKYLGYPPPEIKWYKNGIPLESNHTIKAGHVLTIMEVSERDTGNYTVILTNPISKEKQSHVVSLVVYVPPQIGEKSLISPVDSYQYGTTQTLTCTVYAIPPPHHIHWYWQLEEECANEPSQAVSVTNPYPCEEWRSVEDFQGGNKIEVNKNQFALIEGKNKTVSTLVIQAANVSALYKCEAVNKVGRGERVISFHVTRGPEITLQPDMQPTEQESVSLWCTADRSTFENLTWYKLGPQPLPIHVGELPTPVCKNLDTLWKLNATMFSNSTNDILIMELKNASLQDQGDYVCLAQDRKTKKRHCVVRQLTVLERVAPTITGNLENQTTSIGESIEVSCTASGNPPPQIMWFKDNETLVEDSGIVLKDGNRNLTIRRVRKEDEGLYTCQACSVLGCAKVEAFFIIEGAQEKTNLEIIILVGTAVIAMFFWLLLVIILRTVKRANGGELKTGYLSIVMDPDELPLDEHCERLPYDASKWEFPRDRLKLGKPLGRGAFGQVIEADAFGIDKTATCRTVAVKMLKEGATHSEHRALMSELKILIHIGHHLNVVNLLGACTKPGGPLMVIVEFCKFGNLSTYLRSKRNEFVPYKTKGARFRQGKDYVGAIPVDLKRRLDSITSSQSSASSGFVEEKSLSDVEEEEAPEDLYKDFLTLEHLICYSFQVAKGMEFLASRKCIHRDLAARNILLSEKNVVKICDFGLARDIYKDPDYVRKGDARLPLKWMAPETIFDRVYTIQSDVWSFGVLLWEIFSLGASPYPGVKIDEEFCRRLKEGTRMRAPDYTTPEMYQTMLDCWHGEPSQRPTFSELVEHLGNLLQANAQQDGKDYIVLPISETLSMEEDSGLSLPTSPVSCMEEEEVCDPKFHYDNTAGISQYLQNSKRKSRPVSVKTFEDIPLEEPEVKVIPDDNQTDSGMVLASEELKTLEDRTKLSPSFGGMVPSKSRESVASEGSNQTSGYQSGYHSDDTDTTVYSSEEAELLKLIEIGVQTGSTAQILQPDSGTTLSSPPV
# T3 sequence (P06239 whole entry, species assumed, the tested form may be a part): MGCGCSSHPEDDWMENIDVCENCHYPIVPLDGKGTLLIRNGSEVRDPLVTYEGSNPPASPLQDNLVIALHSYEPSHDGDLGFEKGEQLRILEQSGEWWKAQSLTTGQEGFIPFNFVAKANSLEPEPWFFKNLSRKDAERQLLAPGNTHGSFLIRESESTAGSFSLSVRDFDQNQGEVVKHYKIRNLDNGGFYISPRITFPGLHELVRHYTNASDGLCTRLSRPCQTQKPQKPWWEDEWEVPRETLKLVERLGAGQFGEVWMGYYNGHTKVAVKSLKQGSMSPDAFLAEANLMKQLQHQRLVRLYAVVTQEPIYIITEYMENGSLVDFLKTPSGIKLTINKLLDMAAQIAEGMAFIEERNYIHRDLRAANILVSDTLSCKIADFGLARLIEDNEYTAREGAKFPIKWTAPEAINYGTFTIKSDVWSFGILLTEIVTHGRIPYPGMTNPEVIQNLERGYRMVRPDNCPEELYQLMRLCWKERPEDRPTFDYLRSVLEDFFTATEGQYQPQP
SMILES,IC50 (c-Met),IC50 (ErbB2),IC50 (Lck),IC50 (EGFR),IC50 (AKT),IC50 (Kdr),IC50 (Zap-70),IC50 (PDGFRB),IC50 (IGFR-1),IC50 (Itk)
O=C(O)Cc1cccc(Nc2ncnc(-n3c(NCc4ccccn4)nc4ccccc43)n2)c1 [Compound 533],> 9.95 µM,> 9.95 µM,> 9.95 µM,> 9.95 µM,> 9.95 µM,< 0.884 µM,> 9.95 µM,0.884 to 5.3 µM,> 9.95 µM,> 9.95 µM
CN(c1cccc(Cl)c1)c1ncnc(Nc2ccccc2)n1 [Compound 748],1.28 to 7.7 µM,1.28 to 7.7 µM,1.28 to 7.7 µM,< 1.28 µM,> 14.4 µM,7.7 to 11.2 µM,> 14.4 µM,1.28 to 7.7 µM,7.7 to 11.2 µM,> 14.4 µM
COc1cc(Nc2ncnc(-n3c(NC4CCc5ccccc54)nc4ccccc43)n2)cc(OC)c1OC (centres unmarked) [Compound 1044],> 8.83 µM,0.785 to 4.71 µM,4.71 to 6.87 µM,4.71 to 6.87 µM,> 8.83 µM,0.785 to 4.71 µM,> 8.83 µM,6.87 to 8.83 µM,> 8.83 µM,> 8.83 µM
CN(c1cccc(Cl)c1)c1ncnc(Nc2ccc(F)c(Cl)c2)n1 [Compound 703],> 12.4 µM,9.61 to 12.4 µM,> 12.4 µM,< 1.1 µM,> 12.4 µM,> 12.4 µM,> 12.4 µM,> 12.4 µM,> 12.4 µM,> 12.4 µM
COc1cc(Nc2ncnc(Nc3ccc4nn(C)cc4c3)n2)cc(OC)c1OC [Compound 556],> 11 µM,< 0.982 µM,< 0.982 µM,0.982 to 5.89 µM,> 11 µM,0.982 to 5.89 µM,> 11 µM,< 0.982 µM,< 0.982 µM,0.982 to 5.89 µM
COc1ccc(Nc2ncnc(NCCCOC(C)C)n2)cc1OC [Compound 785],> 13 µM,> 13 µM,> 13 µM,> 13 µM,> 13 µM,> 13 µM,> 13 µM,> 13 µM,> 13 µM,> 13 µM
CN(c1ccc(F)c(Cl)c1)c1ncnc(Nc2cccc(Br)c2)n1 [Compound 713],> 11 µM,> 11 µM,> 11 µM,> 11 µM,> 11 µM,0.979 to 5.87 µM,> 11 µM,> 11 µM,> 11 µM,> 11 µM
CN(c1cccc(Cl)c1)c1ncnc(Nc2ccc(Cl)c(Cl)c2)n1 [Compound 708],> 11.8 µM,> 11.8 µM,> 11.8 µM,> 11.8 µM,> 11.8 µM,> 11.8 µM,6.3 to 9.19 µM,> 11.8 µM,> 11.8 µM,> 11.8 µM
COc1cc(Nc2ncnc(-n3c(NC(C)(C)c4ccccc4)nc4ccccc43)n2)cc(OC)c1OC [Compound 569],> 8.8 µM,> 8.8 µM,< 0.782 µM,> 8.8 µM,> 8.8 µM,< 0.782 µM,> 8.8 µM,< 0.782 µM,> 8.8 µM,> 8.8 µM
COc1cc(Nc2ncnc(-c3cccnc3Cl)n2)cc(OC)c1OCCN1CCOCC1 [Compound 565],> 9.52 µM,> 9.52 µM,0.846 to 5.07 µM,> 9.52 µM,> 9.52 µM,5.07 to 7.4 µM,> 9.52 µM,0.846 to 5.07 µM,> 9.52 µM,> 9.52 µM
COC(=O)c1sccc1Nc1ncnc(N2CCCc3cc(C)ccc32)n1 [Compound 767],> 11.8 µM,> 11.8 µM,> 11.8 µM,> 11.8 µM,> 11.8 µM,> 11.8 µM,> 11.8 µM,> 11.8 µM,> 11.8 µM,> 11.8 µM
COc1cc(Nc2ncnc(NC3CCc4ccccc43)n2)cc(OC)c1OC (centres unmarked) [Compound 581],> 11.4 µM,> 11.4 µM,1.02 to 6.1 µM,1.02 to 6.1 µM,> 11.4 µM,8.9 to 11.4 µM,> 11.4 µM,6.1 to 8.9 µM,> 11.4 µM,> 11.4 µM
Cc1ccc2c(c1)CCCN2c1ncnc(Nc2cc[nH]n2)n1 [Compound 766],1.3 to 7.81 µM,1.3 to 7.81 µM,1.3 to 7.81 µM,1.3 to 7.81 µM,> 14.6 µM,1.3 to 7.81 µM,> 14.6 µM,1.3 to 7.81 µM,1.3 to 7.81 µM,< 1.3 µM

# Next, values leading:
IC50 (c-Met),IC50 (ErbB2),IC50 (Lck),IC50 (EGFR),IC50 (AKT),IC50 (Kdr),IC50 (Zap-70),IC50 (PDGFRB),IC50 (IGFR-1),IC50 (Itk),SMILES
< 0.9 µM,7.87 to 10.1 µM,0.9 to 5.4 µM,7.87 to 10.1 µM,> 10.1 µM,0.9 to 5.4 µM,> 10.1 µM,0.9 to 5.4 µM,< 0.9 µM,0.9 to 5.4 µM,COC(=O)c1ccc(-c2cc(Nc3ncnc(Nc4cccc(CC(N)=O)c4)n3)[nH]n2)cc1 [Compound 577]
4.34 to 6.32 µM,4.34 to 6.32 µM,> 8.13 µM,4.34 to 6.32 µM,> 8.13 µM,0.723 to 4.34 µM,> 8.13 µM,0.723 to 4.34 µM,> 8.13 µM,> 8.13 µM,COc1cc(Nc2ncnc(-n3c(Nc4ccc(OC(F)(F)F)cc4)nc4ccccc43)n2)cc(OC)c1OC [Compound 1050]
5.08 to 7.41 µM,5.08 to 7.41 µM,5.08 to 7.41 µM,< 0.847 µM,7.41 to 9.53 µM,0.847 to 5.08 µM,7.41 to 9.53 µM,7.41 to 9.53 µM,> 9.53 µM,> 9.53 µM,Brc1cccc(Nc2ncnc(Nc3ccc4c(cnn4Cc4ccccc4)c3)n2)c1 [Compound 554]
0.925 to 5.55 µM,< 0.925 µM,0.925 to 5.55 µM,< 0.925 µM,8.09 to 10.4 µM,0.925 to 5.55 µM,5.55 to 8.09 µM,0.925 to 5.55 µM,0.925 to 5.55 µM,0.925 to 5.55 µM,N#CCc1ccc(Nc2ncnc(Nc3ccc4c(cnn4Cc4ccccc4)c3)n2)cc1 [Compound 731]
< 1.02 µM,< 1.02 µM,1.02 to 6.09 µM,< 1.02 µM,> 11.4 µM,1.02 to 6.09 µM,6.09 to 8.89 µM,1.02 to 6.09 µM,> 11.4 µM,> 11.4 µM,CN(c1cccc(Cl)c1)c1ncnc(Nc2cccc(Cc3nnn[nH]3)c2)n1 [Compound 720]
1.08 to 6.45 µM,< 1.08 µM,1.08 to 6.45 µM,< 1.08 µM,> 12.1 µM,1.08 to 6.45 µM,> 12.1 µM,1.08 to 6.45 µM,6.45 to 9.41 µM,> 12.1 µM,COc1ccc(Nc2ncnc(N(C)c3cccc(Cl)c3)n2)cc1OC [Compound 621]
1.07 to 6.43 µM,1.07 to 6.43 µM,6.43 to 9.37 µM,< 1.07 µM,> 12.1 µM,1.07 to 6.43 µM,> 12.1 µM,6.43 to 9.37 µM,> 12.1 µM,> 12.1 µM,Cc1ccc2c(c1)CCCN2c1ncnc(Nc2ccc3c(c2)C(=O)OC3)n1 [Compound 763]
